{"source": "patent EP4813972A1", "about": "“CRYSTAL FORM OF BENZENE SULFONATE CONTAINING PIPERIDINE RING COMPOUND, AND PREPARATION METHOD THEREFOR AND USE THEREOF” (Shanghai Curegene Pharmaceutical Co., Ltd., priority 2023, dated 2025)", "key": {"[1]": {"experiment": "Stability study of crystal forms (crystal form status by XRPD after storage)", "assay_type": "physicochemical", "settings": "14 days", "experimental": "Test method: The sample was prepared on a zero-background silicon wafer by gently pressing to obtain a flat surface. About 10-20 mg of a sample was used for XRPD analysis."}, "[2]": {"experiment": "Solubility study of crystal forms (aqueous HCl pH 1 / 20 mM phosphate buffer pH about 7, HPLC analysis)", "assay_type": "physicochemical", "experimental": "The detailed parameters were as follows:\nAn aqueous HCl solution at pH 1 was prepared. […] After dissolution by stirring, the solution was adjusted to pH = 1 with 1 N NaOH or 1 N HCl. The timing was started, and after T = 3 h, the pH was measured. […] When T = 4 h, the dissolution status was observed, and a dilution factor was selected according to the dissolution status. 50% ACN was used as a diluent for HPLC analysis. When T = 24 h, the dissolution state was observed. With reference to the concentration data at 4 h and the dissolution state at 24 h, a dilution factor was selected, and HPLC analysis was performed. The solubility was calculated according to the HPLC analysis results described above.\nThe aqueous HCl solution at pH 1 in the step described above was replaced with a 20 mM phosphate buffer solution at pH of about 7, and the steps described above were repeated. The solubility was calculated."}}, "data": [{"molecule": "COC(=O)[C@H](c1ccccc1Cl)N1CC[C@@H](SCOC(=O)OC(C)C)/C(=C\\C(=O)O)C1", "note": "[Crystal form F1]", "values": [{"measurement": "Crystal form after treatment", "setting": "[1]; 25 °C/60% RH, open container", "value": "Crystal form F1"}, {"measurement": "Crystal form after treatment", "setting": "[1]; Sealed container at 2-8 °C", "value": "Crystal form F1"}, {"measurement": "Crystal form after treatment", "setting": "[1]; Sealed container at 40 °C", "value": "Crystal form F1"}, {"measurement": "Crystal form after treatment", "setting": "[1]; Sealed container at 60 °C", "value": "Crystal form F1"}, {"measurement": "solubility at 4 h", "setting": "[2]; 20 mm phosphate buffer, pH=7, 4 h", "value": 9.89, "unit": "mg/mL"}, {"measurement": "solubility at 24 h", "setting": "[2]; 20 mm phosphate buffer, pH=7, 24 h", "value": 6.14, "unit": "mg/mL"}, {"measurement": "solubility at 4 h", "setting": "[2]; aqueous hcl, pH=1, 4 h", "value": 11.5, "unit": "mg/mL"}, {"measurement": "solubility at 24 h", "setting": "[2]; aqueous hcl, pH=1, 24 h", "value": 11.4, "unit": "mg/mL"}, {"measurement": "Dissolution status", "setting": "[2]; pH=1, 4 h", "value": "Clear solution"}, {"measurement": "Dissolution status", "setting": "[2]; pH=1, 24 h", "value": "Clear solution"}, {"measurement": "Dissolution status", "setting": "[2]; pH=7, 4 h", "value": "Clear solution"}, {"measurement": "Dissolution status", "setting": "[2]; pH=7, 24 h", "value": "Clear solution"}]}]}
